# Data published in patent US8017618B2, “Antifolate agent combinations in the treatment of cancer” (Tracon Pharmaceuticals, Inc., priority 2006, dated 2011).
# Read-outs that look alike come from different tables or passages of the source.
# Legend:
# topoisomerase II = assay: Topoisomerase II-mediated DNA cleavage of AP or MX-AP site substrates; assay type: biochemical; conditions: AP site at a topoisomerase II cleavage site, incubated with MX
# Description: Analysis of the effect of AP site or MX-AP site on topoisomerase II-mediated DNA cleavage. A position-specific apurinic site was incorporated by replacing a single nucleoside with deoxyuridine at a topoisomerase II cleavage site and then removing the uracil base with uracil-DNA glycosylase, generating AP sites that further are incubated with MX to produce MX-AP sites (FIG. 5A).
# First, it was determined whether APE has a differential effect between regular AP sites and MX-AP sites located in a position specific site for topo II cleavage.
# NCI-H460 tumors = assay: Tumors in nude mice: NCI-H460 NSCLC cell line model; assay type: in vivo, female athymic HSD nude mice; conditions: MX 4 mg/kg with pemetrexed 150 mg/kg, five daily i.p. injections
# Description: (§1) Tumors in Nude Mice. […] Animals received five daily intraperitoneal injections of either saline, pemetrexed alone (150 mg/kg), MX alone (4 mg/kg), or a combination of pemetrexed (150 mg/kg) and MX (4 mg/kg) with a pemetrexed to MX ratio of […].
# [1] = Oral and intravenous bioavailability study of MX via a single bolus administration to Sprague Dawley rats (plasma LC-MS/MS, noncompartmental PK); assay type: in vivo
# Description: Oral and Intravenous Bioavailability Study of MX Via a Single Bolus Administration to Sprague Dawley Rats (Non-GLP). The studies described below were performed to evaluate the bioavailability of methoxyamine (MX) at the safe dose level by comparison of the pharmacokinetic parameters after single bolus oral and intravenous administrations of MX
# Test Animals. Thirty male and thirty female Sprague Dawley rats, 250-350 g, 7-10 weeks of age, were used during the study.
# Dose Preparation and Concentration. One dose solution was prepared on the same day of dose administration, adjusted for the 98% purity of the test article, to achieve a concentration of 4.00 mg/mL “active” MX, 816.77 mg of MX was dissolved into 5% dextrose in a 200-mL volumetric flask. The prepared solution was equally divided into two amber bottles designated for either oral or IV administration. Aliquots were taken for analysis at preparation and after dosing, transported on dry ice and stored at <−70° C.
# Dose Administration. All animals were weighed on the day of dose administration. Individual animal doses were based on this body weight. A constant dose volume of 5 mL/kg was used. IV doses were administered through a single bolus injection into the tail vein using a 3-mL syringe attached to a 26G×1″ needle. The IV dose was administered at a rate of approximately 2 mL/min. Oral doses were administered as a single bolus with an 18G×2″ feeding needle attached to a 3-mL syringe.
# Blood Sample Collection. Blood samples were collected at 5, 15, 30 mins, and 1, 2, 4, 6, 8, 12 and 24 hrs post-dose, with collection at two time points for each animal. Blood samples were collected through the jugular vein for the earlier time point and through the abdominal vein at sacrifice for the later time point. The blood was transferred from the drawing syringe into a 2 mL blood collection tube containing K3-EDTA as the anticoagulant and inverted to mix. Abdominal vein blood collection was performed immediately following CO2 euthanasia.
# Plasma Sample Preparation and Storage Conditions. The blood tube was placed on wet ice before centrifugation for plasma preparation. Whole blood samples were centrifuged at 3,000 rpm at 4° C., for 10 min. Plasma was pipetted into tubes and placed on dry ice initially and later stored at <−70° C.
# Mass spectrometry (MS). Mass spectrometric detection was performed by electrospray ionization with positive turbo spray, according to the specifications listed below.
# Plasma Sample for LC-MS/MS Analysis. Individual plasma samples were thawed at ambient temperature and 250 μL was aliquoted for analysis if a dilution was not needed. Samples taken at 5 min to 1 hr from IV dosed animals or 15 min to 8 hr from orally dosed animals required 5-to 40-fold dilution to fall in the linear range of the method (1 to 1,000 ng/mL). For the samples requiring dilution, an appropriate volume was taken and mixed with blank rat plasma containing the same anticoagulant to make a total volume of 250 μL. The quantitation results were corrected with the dilution factor. Plasma was prepared for LC-MS/MS analysis as follows: • Plasma aliquots were vortexed for 30 seconds, and centrifuged at 14,000 rpm for 10 min to precipitate the interfering particles. • A 100 μL aliquot was taken from the supernatant and placed into a 1.5 mL microcentrifuge tube. • To the 100 μL plasma aliquot, 310 μL of H2O: formic acid (2:1), 30 μL of acenocoumerol (IS) in H2O (10 μg/mL) and 100 μL of diethylaminobenzaldehyde in 2:1H2O: formic acid solution (10 mg/mL) were added and mixed well. • The mixture was then incubated in a water bath at 80° C. for 2 hrs. After incubation, the supernatant was transferred into a HPLC vial for LC-MS/MS quantitation.
# Methoxyamine (MX) Pharmacokinetics and Bioavailability Analysis. Pharmacokinetics Analysis. […]
# HCT116 tumors = assay: Tumors in nude mice: HCT116 colon cancer cell line model; assay type: in vivo, female athymic HSD nude mice; conditions: MX 4 mg/kg with pemetrexed 150 mg/kg, five daily i.p. injections
# Description: as §1
# H460 cells = conditions: for formation of AP sites: pemetrexed 100, 200 and 400 μM, 24 hours, induction proportional to dose
# Description: To determine the effect of pemetrexed+methoxyamine (MX) compared to pemetrexed alone on the number of AP sites generated, an aldehyde reactive probe (ARP) reagent was used to measure AP sites formed by pemetrexed and blocked by MX. ARP and MX have a similar reactivity with AP sites, and react specifically with an aldehyde group, an open-ring form of the AP sites. […] H460 cells were treated with pemetrexed (0, 100, 200 or 400 μm) for 24 hours. DNA (15 μg) was then extracted from cells and incubated with 1 mM ARP at 37° C. for 10 min. DNA was precipitated and washed with ethanol, then resuspended in TE buffer (10 mM Tris-HCl, pH 7.2, 1 mM EDTA) and denatured at 100° C. for 5 min. The DNA was then quickly chilled on ice and mixed with an equal amount of ammonium acetate (2 M). Single-stranded DNA was then immobilized on a nitrocellulose membrane using a vacuum filter device. The membrane was incubated with streptavidin-conjugated horseradish peroxidase at room temperature for 30 min and rinsed with washing buffer (20 mM Tris-HCl, 1 mM EDTA, 0.26 M NaCl, 1% Tween-20). ARP-AP sites were visualized with ECL reagents (Amersham, Piscataway, N.J.). […] The effect of the combination of 200 μM pemetrexed and 6 mM MX was viewed at 24 hrs, 48 hrs and 72 hrs.
# [2] = both sexes, Sprague-Dawley, rat, in vivo, po, 20 mg/kg
# [3] = female, Sprague-Dawley, rat, in vivo, 20 mg/kg
# [4] = female, Sprague-Dawley, rat, in vivo, iv, 20 mg/kg
# [5] = female, Sprague-Dawley, rat, in vivo, po, 20 mg/kg
# [6] = male, Sprague-Dawley, rat, in vivo, 20 mg/kg
# [7] = male, Sprague-Dawley, rat, in vivo, iv, 20 mg/kg
# [8] = male, Sprague-Dawley, rat, in vivo, po, 20 mg/kg
smiles,measurement,setting,value
"CON [MX, Methoxyamine]",topoisomerase II-mediated cleavage of MX-AP sites,topoisomerase II,MX-AP sites are able to stimulate topoisomerase II-mediated DNA cleavage
same,reversal of resistance to pemetrexed chemotherapy,NCI-H460 tumors,reversed resistance
same,half-life,"[1]; Sprague-Dawley, rat, in vivo, po",> 240 min
same,serum levels following oral dosing versus target Cmax associated with activity in mouse models of human cancer,"[1]; Sprague-Dawley, rat, in vivo, po, 20 mg/kg",> 50 ng/mL
same,half-life,"[1]; both sexes, Sprague-Dawley, rat, in vivo",240 to 360 min
same,Tmax,[1]; [2],30 to 60 min
same,bioavailability,[1]; [2],~100%
same,"Bioavailability (absolute, oral to IV AUC0-∞5 ratio)",[1]; [3],94%
same,F,[1]; [3],0.94
same,distribution phase complete (time postdose),"[1]; female, Sprague-Dawley, rat, in vivo, iv",approximately 2 hrs
same,AUC0-∞5 (AUC0-∞ normalized to a total dose amount of 5 mg MX),[1]; [4],13892 ng·h/mL
same,AUC(0-inf),[1]; [4],13100 ng·h/mL
same,AUC(0-t),[1]; [4],13000 ng·h/mL
same,Cmax,[1]; [4],11000 ng/mL
same,Tmax,[1]; [4],4.8 min
same,half-life,[1]; [4],276 min
same,AUC(0-inf),[1]; [5],12000 ng·h/mL
same,AUC(0-t),[1]; [5],11600 ng·h/mL
same,Cmax,[1]; [5],2960 ng/mL
same,Tmax,[1]; [5],30 min
same,half-life,[1]; [5],342 min
same,"Bioavailability (absolute, oral to IV AUC0-∞5 ratio)",[1]; [6],110%
same,F,[1]; [6],1.1
same,distribution phase complete (time postdose),"[1]; male, Sprague-Dawley, rat, in vivo, iv",approximately 2 hrs
same,AUC0-∞5 (AUC0-∞ normalized to a total dose amount of 5 mg MX),[1]; [7],11284 ng·h/mL
same,AUC(0-inf),[1]; [7],12700 ng·h/mL
same,AUC(0-t),[1]; [7],12500 ng·h/mL
same,Cmax,[1]; [7],15500 ng/mL
same,Tmax,[1]; [7],4.8 min
same,half-life,[1]; [7],312 min
same,AUC0-∞5 (AUC0-∞ normalized to a total dose amount of 5 mg MX),[1]; [8],12420 ng·h/mL
same,AUC(0-inf),[1]; [8],13800 ng·h/mL
same,AUC(0-t),[1]; [8],13600 ng·h/mL
same,Cmax,[1]; [8],2200 ng/mL
same,Tmax,[1]; [8],60 min
same,half-life,[1]; [8],252 min
same,clinical signs of toxicity,"[1]; rats, 20 mg/kg body weight intravenously or orally",no clinical signs of toxicity
same,reversal of resistance to pemetrexed chemotherapy,HCT116 tumors,reversed resistance
"Nc1nc2[nH]cc(CCc3ccc(C(=O)N[C@@H](CCC(=O)O)C(=O)O)cc3)c2c(=O)[nH]1 [pemetrexed, 2-[4-[2-(4-amino-2-oxo-3,5,7-triazabicyclo[4.3.0]nona-3,8,10-trien-9-yl)ethyl]benzoyl]aminopentanedioic acid]",number of detectable AP sites over time,"H460 cells; 200 μM pemetrexed, 6 mM MX, 24 hrs, 48 hrs and 72 hrs",number of detectable AP sites were reduced
same,formation of AP sites,H460 cells,induces the formation of AP sites
same,formation of AP sites,H460 cells; listed as Pemetrexed,induced the formation of AP sites
